Assay results from patent US20240026461A1, “BCL10 MUTATIONS AS BIOMARKERS FOR TARGETED THERAPY IN B CELL LYMPHOMAS” (priority 2022, published 2024).
Values belong to the molecule of their own block, whether it stands above or below them.

Experiments:
HBL1^WT = test: Growth inhibition assay (CellTiter Glo), HBL1 cells expressing BCL10 WT; assay type: cell-based; details: Homo sapiens, 96 h, read-out: IC50, growth inhibition, BTK inhibitors
Procedure: (§1) DLBCL cell lines were cultured in exponential condition and the cell growth was determined by CellTiter Glo (Promega). 3000-5000 cells were seeded and cultured in each well of 384 well plate for 96 h and treated with compounds every 48 h. Luminescence was read at the endpoint with the Synergy NEO microplate reader (BioTek). The value of compound treated cells was normalized to their vehicle treated controls and then used to calculate IC50 in GraphPad Prism (RRID:SCR_002798).
(§2) Given the distinct functional profiles, CARD11 dependencies, and MALT1 activation effects of the BCL10 CARD and truncation mutants, the inventors designed experiments to evaluate whether, and to what extent, these mutant BCL10 proteins might confer BTK inhibitor resistance. Isogenic ABC-DLBCL cells expressing BCL10WT, BCL10^R58Q and BCL10^E140X proteins were treated with escalating doses of three chemically distinct covalent BTK inhibitors: ibrutinib, acalabrutinib, or zanubrutinib. The cellular proliferation rates of the treated cells were measured using an ATP fluorescence assay after 96 hours of drug exposure.
(§3) Isogenic BCL10^WT, BCL10^R58Q and BCL10^E140X ABC-DLBCLs were exposed to increasing concentrations of each of these compounds for 96 hours.

HBL1^R58Q = test: Growth inhibition assay (CellTiter Glo), HBL1 cells expressing BCL10 R58Q; assay type: cell-based; details: Homo sapiens, 96 h, read-out: IC50, growth inhibition, BTK inhibitors
Procedure: as §1, §2, §3

HBL1^E140X = test: Growth inhibition assay (CellTiter Glo), HBL1 cells expressing BCL10 E140X; assay type: cell-based; details: Homo sapiens, 96 h, read-out: IC50, growth inhibition, BTK inhibitors
Procedure: as §1, §2, §3

OCI-LY10^WT = test: Growth inhibition assay (CellTiter Glo), OCI-Ly10 cells expressing BCL10 WT; assay type: cell-based; details: Homo sapiens, 96 h, read-out: IC50, growth inhibition, BTK inhibitors
Procedure: as §1, §2, §3

OCI-LY10^R58Q = test: Growth inhibition assay (CellTiter Glo), OCI-Ly10 cells expressing BCL10 R58Q; assay type: cell-based; details: Homo sapiens, 96 h, read-out: IC50, growth inhibition, BTK inhibitors
Procedure: as §1, §2, §3

OCI-LY10^E140X = test: Growth inhibition assay (CellTiter Glo), OCI-Ly10 cells expressing BCL10 E140X; assay type: cell-based; details: Homo sapiens, 96 h, read-out: IC50, growth inhibition, BTK inhibitors
Procedure: as §1, §2, §3

[1] = tested on: BCL10^WT expressing ABC-DLBCL xenografts; test: Xenograft, ibrutinib treatment, BCL10^WT tumors; assay type: in vivo, mice; details: ibrutinib 37mpk, oral gavage, Q.D.
From the text: (§4) FIG. 6A-6K illustrate that BCL10 gain-of-function mutant lymphomas are resistant to upstream Bruton's tyrosine kinase (BTK) inhibitors. FIG. 6A illustrates growth inhibition assays of human diffuse large B-cell lymphoma (HBL1) cells and OCI-Ly10 lymphoma cells expressing wild type or mutant BCL10 protein in response to the BTK inhibitor Acalabrutinib. X axis, concentration of compound (M); Y axis, inhibition of cell growth normalized to vehicle treated cells. *p<0.05; **p<0.01; ****p<0.0001; ns, not significant. FIG. 6B illustrates growth inhibition assays of human diffuse large B-cell lymphoma (HBL1) cells and OCI-Ly10 lymphoma cells expressing wild type or mutant BCL10 protein in response to the BTK inhibitor Zanubrutinib. […] FIG. 6D illustrates luciferase activity measured in the MALT1 GloSensor reporter cell lines upon BTK inhibitor Acalabrutinib treatment. […] FIG. 6E illustrates luciferase activity measured in the MALT1 GloSensor reporter cell lines upon BTK inhibitor Zanubrutinib treatment. […] FIG. 6F illustrates luciferase activity measured in the MALT1 GloSensor reporter cell lines upon BTK inhibitor Ibrutinib treatment. […] AUC was calculated with Prism. FIG. 6J graphically illustrates tumor weight measured at the endpoint of tumors formed from xenografts of HBL1 cells expressing WT and mutant BCL10 (n=5-6/group). […]

[2] = tested on: BCL10^R58Q expressing ABC-DLBCL xenografts; test: Xenograft, ibrutinib treatment, BCL10^R58Q tumors; assay type: in vivo, mice; details: ibrutinib 37mpk, oral gavage, Q.D.
From the text: as §4

[3] = tested on: BCL10^E140X expressing ABC-DLBCL xenografts; test: Xenograft, ibrutinib treatment, BCL10^E140X tumors; assay type: in vivo, mice; details: ibrutinib 37mpk, oral gavage, Q.D.
From the text: as §4

[4] = target: T1, MALT1 (of the lymphoma cell lysates, detected with anti-MALT1) (UniProt Q9UDY8 2-824, limits assumed); test: anti-Flag co-immunoprecipitation from Raji cells, anti-MALT1 blot
T1 construct: Cellular MALT1 co-precipitated or co-fractionated with Flag-BCL10; HBL1 is called a human lymphoma line
T1 sequence (looked up): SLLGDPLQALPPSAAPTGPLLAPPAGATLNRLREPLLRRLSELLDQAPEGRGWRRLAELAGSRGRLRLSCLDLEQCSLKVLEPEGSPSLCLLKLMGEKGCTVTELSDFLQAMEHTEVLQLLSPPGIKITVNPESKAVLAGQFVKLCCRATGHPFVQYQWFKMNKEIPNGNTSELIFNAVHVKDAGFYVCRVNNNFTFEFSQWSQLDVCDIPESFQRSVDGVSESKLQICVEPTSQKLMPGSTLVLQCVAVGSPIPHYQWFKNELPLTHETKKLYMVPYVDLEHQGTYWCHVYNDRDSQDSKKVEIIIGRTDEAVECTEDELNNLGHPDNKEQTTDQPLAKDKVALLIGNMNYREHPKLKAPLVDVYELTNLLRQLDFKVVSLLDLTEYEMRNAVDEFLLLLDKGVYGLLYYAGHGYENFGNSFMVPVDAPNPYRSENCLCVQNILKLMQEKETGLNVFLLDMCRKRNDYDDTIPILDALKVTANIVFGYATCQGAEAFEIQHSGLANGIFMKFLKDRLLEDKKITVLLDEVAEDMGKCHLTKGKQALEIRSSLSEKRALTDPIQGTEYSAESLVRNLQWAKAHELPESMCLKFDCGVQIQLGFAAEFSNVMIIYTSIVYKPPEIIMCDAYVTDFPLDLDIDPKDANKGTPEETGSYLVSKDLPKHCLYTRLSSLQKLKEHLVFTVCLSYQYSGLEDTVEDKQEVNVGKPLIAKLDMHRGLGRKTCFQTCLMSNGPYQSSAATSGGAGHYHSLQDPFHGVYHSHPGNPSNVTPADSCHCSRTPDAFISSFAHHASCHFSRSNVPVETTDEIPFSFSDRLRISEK
Procedure: Lymphoma cells (10⁸) were collected, washed with cold PBS and resuspended with lysis buffer (1% NP40, 10% glycerol, 150 mM NaCl, 20 mM Tris-HCL pH 7.5, and freshly added protease inhibitors). The lysates were centrifuged at 15,000 g, 4° C. for 15 min and the supernatant was then collected and incubated with 50 μL equilibrated anti-Flag magnetic beads (Sigma-Aldrich Cat #M8823, RRID:AB_2637089) at 4° C. for 3 h. The beads were washed 3 times with lysis buffer and followed by 3 times washing with the lysis buffer without NP40. SDS loading buffer without […] reagent was added and boiled at 95° C. for 5 min. The elution was added for […] (final 10%), and ready to run western blot after boiling at 95° C. for 5 min.
To investigate how the truncation mutants might affect CBM complex formation, Flag-tagged wild type and mutant forms of BCL10 were expressed in Raji cells, which lack constitutive B-cell receptor (BCR) signaling. Anti-Flag co-immunoprecipitations were performed on cell lysates. […] In contrast, there was less binding of MALT1 to BCL10^E140X, as well as to the similar BCL10^{K146Nfs*2} truncation mutant (FIG. 4A).

MALT1 (Ig1-Ig2) = target: T2, MALT1 (Ig1-Ig2) (human, UniProt Q9UDY8 125-309); test: His pull-down after co-expression in E. coli, Coomassie-stained SDS-PAGE
T2 construct: domain: Ig1-Ig2; also called Ig1-Ig2 construct of MALT1; MALT1 (207-309)
T2 sequence (looked up): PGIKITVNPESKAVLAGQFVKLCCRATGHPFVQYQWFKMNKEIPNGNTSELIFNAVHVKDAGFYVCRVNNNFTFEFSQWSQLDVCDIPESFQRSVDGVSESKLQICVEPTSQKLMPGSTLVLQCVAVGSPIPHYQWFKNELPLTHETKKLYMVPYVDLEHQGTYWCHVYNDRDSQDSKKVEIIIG
Procedure: The inventors designed experiments to determine whether there were additional MALT1-binding sites on BCL10 at its largely unstructured C-terminus. The C-terminal region was divided into two halves and MALT1 pull-down studies were performed. […] Of note, unlike the interaction between BCL10 CARD and MALT1 death domain (DD) in the filamentous form, the interaction between BCL10 C-terminal region and MALT1 Ig1-Ig2 is monomeric as assessed by gel filtration chromatography of the complex.

Molecule: C=CC(=O)N1CCC[C@@H](n2nc(-c3ccc(Oc4ccccc4)cc3)c3c(N)ncnc32)C1 [Ibrutinib]
IC50 (HBL1^WT): 4 nM | IC50 (HBL1^R58Q): 6.1 nM | IC50 (HBL1^E140X): 11 nM | IC50 (OCI-LY10^WT): 0.66 nM | IC50 (OCI-LY10^R58Q): 2.2 nM | IC50 (OCI-LY10^E140X): 3.3 nM | tumor growth of xenografts [1]: suppressed growth | tumor growth of xenografts ([1]; listed as ibrutinib): expected growth suppression | tumor growth of xenografts [2]: no significant anti-tumor effect | tumor growth of xenografts [3]: no significant anti-tumor effect

binding result [4]: binds
B1: Flag-BCL10^E140X (other)
chain: MEPTAPSLTEEDLTEVKKDALENLRVYLCEKIIAERHFDHLRAKKILSREDTEEISCRTSSRKRAGKLLDYLQENPKGLDTLVESIRREKTQNFLIQKITDEVLKLRNIKLEHLKGLKCSSCEPFPDGATNNLSRSNSD
notes: Range 1-139 follows from the name E140X (stop codon at position 140); Expressed in Raji and HBL1 cells; also called Flag tagged E140X; truncating mutant at position 140; not shown: Flag tag

binding result (MALT1 (Ig1-Ig2)): no binding
B2: His-tagged BCL10 (116-164) (other)
chain: GLKCSSCEPFPDGATNNLSRSNSDESNFSEKLRASTVMYHPEGESSTTP
notes: Co-expressed with MALT1 Ig1-Ig2 in E. coli; not shown: His tag
